The values below are quoted from earlier work in PubChem BioAssay AID1259409 (Chemical Carcinogenesis Research Information System (CCRIS), 2018).

For the series, the system named is rodent chemically induced tumor inhibition, incidence and multiplicity. Put plainly: CCRIS tumor inhibitor studies.

As to `O=C1CC(C(=O)O)C(C(=O)O)O1` (centres undefined), the “tumour outcome (control, treated, inhibition, significance)” value (Carcinogen: BENZO[A]PYRENE, 50-32-8, Dose [Inhibitor]: 0.034 MMOL/G IN DIET FOR 5 WK BEGINNING 1 WK PRIOR TO FIRST CARCINOGEN DOSE AND CONTINUING FOR 3 D POST LAST CARCINOGEN, Route [Inhibitor]: ORAL, Species: MOUSE, Strain/Sex: ICR/HA/FEMALE, Target Tissue: Type of Lesion: FORESTOMACH: TUMOR, Dose [Carcinogen]: 1 MG IN 0.2 ML CORN OIL 2/WK FOR 4 WK STARTING, Promoter: NONE USED) is 100%, 100%, 0%, not significant.
In the case of `CC(C)=CCC/C(C)=C/CC/C(C)=C/CC/C=C(\C)CC/C=C(\C)CCC=C(C)C`, the “tumour outcome (control, treated, inhibition, significance)” value is, setting by setting: (Carcinogen: BENZO[A]PYRENE, 50-32-8, Dose [Inhibitor]: 25 MG IN 0.1 ML ACETONE 3/WK ADMINISTERED SIMULTANEOUSLY WITH CARCINOGEN FOR DURATION OF STUDY (STUDY DURATION: 440 D), Route [Inhibitor]: DERMAL, Species: MOUSE, Strain/Sex: ICR/FEMALE, Target Tissue: Type of Lesion: SKIN: PAPILLOMA, Dose [Carcinogen]: 5 UG IN 0.1 ML ACETONE 3/WK FOR DURATION OF STUDY, Promoter: NONE USED) 16/50 (32%), 1/50 (2%), 94%, not calculated; (Carcinogen: BENZO[A]PYRENE, 50-32-8, Dose [Inhibitor]: 25 MG IN 0.1 ML ACETONE 3/WK ADMINISTERED SIMULTANEOUSLY WITH CARCINOGEN FOR DURATION OF STUDY (STUDY DURATION: 440 D), Route [Inhibitor]: DERMAL, Species: MOUSE, Strain/Sex: ICR/FEMALE, Target Tissue: Type of Lesion: SKIN: SQUAMOUS CARCINOMA, Dose [Carcinogen]: 5 UG IN 0.1 ML ACETONE 3/WK FOR DURATION OF STUDY, Promoter: NONE USED) 12/50 (24%), 0/50 (0%), 100%, not calculated.
For the molecule `C[S+](C)CC(=O)[O-]`, the “tumour outcome (control, treated, inhibition, significance)” value reads like this: (Carcinogen: 7,12-DIMETHYLBENZ[A]ANTHRACENE, 57-97-6, Dose [Inhibitor]: 0, 0.005 MOL/KG DIET BEGINNING 2 WK PRIOR TO CARCINOGEN AND CONTINUED FOR STUDY DURATION (STUDY DURATION: 25 WK), Route [Inhibitor]: ORAL, Species: RAT, Strain/Sex: CD-1/FEMALE, Target Tissue: Type of Lesion: MAMMARY GLAND: ADENOCARCINOMA, Dose [Carcinogen]: 10 MG ONCE, Promoter: NONE USED) 20/25 (80%), 19/25 (76%), 5%, not significant; (Carcinogen: 7,12-DIMETHYLBENZ[A]ANTHRACENE, 57-97-6, Dose [Inhibitor]: 0, 0.01 MOL/KG DIET BEGINNING 2 WK PRIOR TO CARCINOGEN AND CONTINUED FOR STUDY DURATION (STUDY DURATION: 25 WK), Route [Inhibitor]: ORAL, Species: RAT, Strain/Sex: CD-1/FEMALE, Target Tissue: Type of Lesion: MAMMARY GLAND: ADENOCARCINOMA, Dose [Carcinogen]: 10 MG ONCE, Promoter: NONE USED) 20/25 (80%), 21/25 (84%), -5%, not significant; (Carcinogen: 7,12-DIMETHYLBENZ[A]ANTHRACENE, 57-97-6, Dose [Inhibitor]: 0, 0.02 MOL/KG DIET BEGINNING 2 WK PRIOR TO CARCINOGEN AND CONTINUED FOR STUDY DURATION (STUDY DURATION: 25 WK), Route [Inhibitor]: ORAL, Species: RAT, Strain/Sex: CD-1/FEMALE, Target Tissue: Type of Lesion: MAMMARY GLAND: ADENOCARCINOMA, Dose [Carcinogen]: 10 MG ONCE, Promoter: NONE USED) 20/25 (80%), 18/25 (72%), 10%, not significant.
As for `CC1(C)[C@@H](O[C@H]2O[C@H](C(=O)O)[C@@H](O)[C@H](O)[C@H]2O[C@@H]2O[C@H](C(=O)O)[C@@H](O)[C@H](O)[C@H]2O)CC[C@]2(C)[C@H]3C(=O)C=C4[C@@H]5C[C@@](C)(C(=O)O)CC[C@]5(C)CC[C@@]4(C)[C@]3(C)CC[C@@H]12`, the “tumour outcome (control, treated, inhibition, significance)” value is reported as 100%, 100%, 0%, not significant (Carcinogen: 7,12-DIMETHYLBENZ[A]ANTHRACENE, 57-97-6, Dose [Inhibitor]: 0, 0.05% IN DRINKING WATER BEGINNING 50 D PRIOR TO CARCINOGEN TREATMENT AND CONTINUING FOR THE DURATION OF STUDY (STUDY, Route [Inhibitor]: ORAL, Species: MOUSE, Strain/Sex: SENCAR/FEMALE, Target Tissue: Type of Lesion: SKIN: TUMOR, Dose [Carcinogen]: 40 NMOL IN 0.2 ML ACETONE ONCE, Promoter: 12-O-TETRADECANOYLPHORBOL-13-ACETATE, 16561-29-8); 100%, 100%, 0%, not significant (Carcinogen: 7,12-DIMETHYLBENZ[A]ANTHRACENE, 57-97-6, Dose [Inhibitor]: 0, 0.05% IN DRINKING WATER FOR 50 D PRIOR TO CARCINOGEN TREATMENT (STUDY DURATION: 23 WK), Route [Inhibitor]: ORAL, Species: MOUSE, Strain/Sex: SENCAR/FEMALE, Target Tissue: Type of Lesion: SKIN: TUMOR, Dose [Carcinogen]: 40 NMOL IN 0.2 ML ACETONE ONCE, Promoter: 12-O-TETRADECANOYLPHORBOL-13-ACETATE, 16561-29-8); 7/11 (64%), 3.14 (21%), 65%, p<0.05 (Carcinogen: DIETHYLNITROSAMINE, 55-18-5, Dose [Inhibitor]: 0, 2 MG 3/WK FOR 32 WK BEGINNING 2 WK PRIOR TO CARCINOGEN TREATMENT (STUDY DURATION:32 WK), Route [Inhibitor]: INTRAMUSCULAR, Species: MOUSE, Strain/Sex: BALB/MALE, Target Tissue: Type of Lesion: LIVER :HEPATOCELLULAR CARCINOMA, Dose [Carcinogen]: 75 MG/KG 1/WK FOR 3 WK THEN 100 MG/KG 1/WK FOR 3 WK, Promoter: NONE USED).
